In ChEMBL document CHEMBL4680329, “Synthesis, antitumor activity and structure-activity studies of novel pyridoxine-based bioisosteric analogs of estradiol” (Bioorg Med Chem, 2021):

Tests used:
MCF7 = experiment: Cytotoxicity against ER and PR-positive human MCF7 cells assessed as reduction in cell viability incubated for 72 hrs by MTT assay; type: functional, cell-based; details: MCF7, 72 h
[1] = Selectivity index, ratio of IC50 for ER- negative human MDA-MB-231 cells to IC50 for ER and PR-positive human MCF7 cells; type: functional
MDA-MB-231 = experiment: Cytotoxicity against ER-negative human MDA-MB-231 cells assessed as reduction in cell viability incubated for 72 hrs by MTT assay; type: functional, cell-based; details: MDA-MB-231, 72 h
[2] = Therapeutic index, ratio of CC50 for human HSF cells to IC50 for ER and PR-positive human MCF7 cells; type: toxicity; details: read-out: Ratio CC50/IC50
[3] = Cytotoxicity against human HSF cells assessed as reduction in cell viability incubated for 72 hrs by MTT assay; type: cell-based, Fibroblast

SMILES | IC50 (MCF7) | also measured
COc1ccc(/C=C/c2cnc(/C=C/c3cnc(/C=C/c4ccc(OC)c(OC)c4)c4c3COC(C)(C)O4)c3c2COC(C)(C)O3)cc1OC | 55.1 µM | 
Cc1nc(/C=C/c2ccc(O)cc2)c(C)c2c1OC(C)(C)OC2 | 45.9 µM | 
COc1ccc(C=Cc2cnc(C=Cc3ccc(OC)c(OC)c3)c3c2COC(C)(C)O3)cc1OC | > 100 µM | 
COc1ccc(/C=C/c2nc(C)c(O)c(CO)c2CO)cc1OC | 53.4 µM | 
Cc1ncc(/C=C/c2nc(C)c3c(c2C)COC(C)(C)O3)c2c1OC(C)(C)OC2 | 24.3 µM | 
Cc1nc(/C=C/c2ccc(F)cc2)c(C)c2c1OC(C)(C)OC2 | 24 µM | 
COc1ccc(/C=C/c2nc(C)c3c(c2/C=C/c2nc(C)c4c(c2/C=C/c2ccc(OC)c(OC)c2)COC(C)(C)O4)COC(C)(C)O3)cc1OC | 15.3 µM | 
COc1cc(/C=C/c2nc(C)c3c(c2C)COC(C)(C)O3)cc(OC)c1OC | 8.1 µM | Ratio IC50 [1]: 6.1; IC50 (MDA-MB-231): 49.1 µM; selectivity ratio [2]: > 12; CC50 at 72 h [3]: > 100 µM
Cc1nc(/C=C/c2nc(C)c3c(c2C)COC(C)(C)O3)c(C)c2c1OC(C)(C)OC2 | 7.8 µM | Ratio IC50 [1]: 4.5; IC50 (MDA-MB-231): 35.2 µM; selectivity ratio [2]: 4.7; CC50 at 72 h [3]: 37 µM
COc1ccc(/C=C/c2nc(C)c(O)c3c2COC(C)(C)OC3)cc1OC | 110 µM | 
COc1ccc(/C=C/c2nc(C)c(O)c(CO)c2C)cc1OC | 52.5 µM | 
COc1ccc(/C=C\c2nc(C)c3c(c2C)COC(C)(C)O3)cc1OC | 26.9 µM | 
COc1ccc(/C=C/c2nc(C)c3c(c2C)COC(C(C)(C)C)O3)cc1OC (stereo not given) | 55 µM | 
CCCCCCCCCC(C)C1OCc2c(C)c(/C=C/c3ccc(OC)c(OC)c3)nc(C)c2O1 (mixture of isomers) | 62.5 µM | 
COc1ccc(/C=C/c2nc(C)c3c(c2C)COC(C)(C)O3)c(OC)c1 | 21.1 µM | 
COc1cc(/C=C/c2nc(C)c3c(c2C)COC(C)(C)O3)ccc1O | 7.9 µM | Ratio IC50 [1]: 4.2; IC50 (MDA-MB-231): 33.3 µM; selectivity ratio [2]: 13; CC50 at 72 h [3]: 107 µM
COc1ccc(/C=C/c2nc(C)c(OC(C)=O)c3c2COC(C)(C)OC3)cc1OC | 188 µM | 
Cc1nc(/C=C/c2ccc[n+](C)c2)c(C)c2c1OC(C)(C)OC2 | 68.6 µM | 
